Data: article PMC3907537, “Evaluation of the Endothelin Receptor Antagonists Ambrisentan, Bosentan, Macitentan, and Sitaxsentan as Hepatobiliary Transporter Inhibitors and Substrates in Sandwich-Cultured Human Hepatocytes” (PLoS ONE, 2014)

Assays:
[1] = tested on: sandwich-cultured human hepatocytes; test: ERA effect on hepatobiliary disposition of d8-taurocholate (B-CLEAR sandwich culture); assay type: cell-based; details: n = 3 donors; for d8-TCA cellular accumulation (% control) / d8-TCA total accumulation (% control): 2.5 µM d8-TCA, 10 min
Procedure: (§1) Sandwich-cultured human hepatocytes were obtained from Celsis/IVT (Baltimore, MD) or Life Technologies (Durham, NC). Donors were male (n = 3) and female (n = 1) between the ages of 31 and 62 years old. Hepatic uptake, biliary excretion and in vitro biliary clearance (Clb) were determined using the B-CLEAR® hepatocyte sandwich culture model as described by Liu et al., 1999 [34]. In this system, hepatocytes form functional bile canalicular networks while maintaining the expression and function of key uptake and efflux transporters. The canalicular system of bile pockets remains separate from the cellular culture media due to tight junctions between cells. The integrity of these tight junctions is maintained in the presence of calcium (Plus (+) buffer) while in the absence of calcium (Minus (−) buffer), these tight junctions open and release the contents of the canalicular network into the media.
A dose solution containing 2.5 µM d8-taurocholic acid (d8-TCA) was prepared in Plus (+) Buffer. Co-incubation solutions were prepared by combining d8-TCA dose solution and ERA or rifamycin-SV. Hepatocytes were washed and then conditioned for 10 min in warm Plus (+) or Minus (−) buffer with and without ERA or rifamycin-SV. Pre-incubation solutions were then removed and replaced with dose or co-incubation solutions and incubated for 10 min at 37°C. Following this 10 minute incubation, the dose or co-incubation solutions were removed and the cells were then washed three times with ice-cold Plus (+) buffer. The plates were then frozen at −80°C until processed for bioanalysis.
Study samples were stored in their original 24-well plates at −80°C until prepared for analysis. A volume of 500 µL of cell lysis solution (70∶30 methanol:water) containing 25 nM internal standard was added to each well and mixed for 20 min of mixing. The volume in each well was then transferred to a 96-well filter plate stacked on a Greiner deep well collection plate. The filter plate/collection plate was then centrifuged at 2000 rcf for 5 min. The filtrate was then evaporated to dryness under nitrogen. Samples were reconstituted in 200 µL of sample diluent (60∶40 methanol:10 mM ammonium acetate, native pH), sealed, and placed on a plate shaker for 15 min. These samples were then transferred to a Whatman 96-well 0.45 µm PVDF filter plate stacked on a Costar 3956 plate (HPLC injection plate), centrifuged at 2000 rcf for 2–3 min, and sealed with a silicon cap mat prior to LC-MS/MS analysis. d8-TCA standard spiking solutions were prepared in 50∶50 methanol:water. For a given lysate standard or control, 10 µL was added to each well of a previously frozen analytical plate. Standards representing 0.5–100 pmoles/well and QC’s at the LLQ and ULQ were prepared. These lysate standards and controls were then further processed as described above for unknown study samples. Prepared samples were filtered and analyzed by LC-MS/MS using a Shimadzu binary HPLC system (Columbia, MD) and tandem mass spectrometry using Thermo Electron TSQ® Quantum Discovery MAX™ (Waltham, MA) with an Ion Max ESI source operating in negative ion electrospray ionization mode. Results for unknowns and QCs were calculated using a standard curve based on an internal standard processing method.
(§2) Data calculations were performed using Microsoft Excel, 2010 with all values reported as mean ± standard deviation (SD). Statistical comparisons across ERA treatments were performed using analysis of variance (ANOVA) with Fisher’s PLSD post hoc analysis (Statview 5.0, SAS Institute, Cary NC); statistical significance was considered to be P<0.05. All mass values were normalized to mg protein by taking the average protein mass in the taurocholate plate determined using a BCA protein assay (Pierce Biotechnology, Rockford, IL). Cellular accumulation determined in Minus (−) buffer (Accumulation Minus (−) Buffer) represents the total mass of analyte inside the hepatocyte at the end of the incubation time period. […]

[2] = tested on: sandwich-cultured human hepatocytes; test: Hepatic disposition (intracellular accumulation) of ERAs in sandwich-cultured human hepatocytes; assay type: in vitro ADME; details: sandwich-cultured human hepatocytes, 1, 10 and 100 µM, 10 min, n = 3 donors
Procedure: as §1
Incubation solutions containing ERA (1, 10 and 100 µM) were prepared in Plus (+) buffer. Cell culture medium was removed from the wells and the cells were washed twice with Plus (+) or Minus (−) buffer. The wash solutions were then removed and replaced with fresh Plus (+) or Minus (−) buffer. The cells were conditioned for 10 min at 37°C. After the 10 min exposure, the buffer solutions were removed and replaced with the incubation solutions and incubated for 10 min at 37°C. Following 10 min incubation, the incubation solutions were removed and the cells were then washed three times with ice-cold Plus (+) Buffer. The plates were frozen at −80°C until processed for bioanalysis.
Study samples were stored in their original 24-well plates at −80°C until prepared for analysis. A volume of 500 µL of cell lysis solution (70∶30 methanol:water) containing 25 nM internal standard was added to each well and mixed for 20 min of mixing. […] Prepared samples were filtered and analyzed by LC-MS/MS using a Shimadzu binary HPLC system (Columbia, MD) and tandem mass spectrometry using Thermo Electron TSQ® Quantum Discovery MAX™ (Waltham, MA) with an Ion Max ESI source operating in negative ion electrospray ionization mode. Results for unknowns and QCs were calculated using a standard curve based on an internal standard processing method.
as §2, with “Statistical comparisons across ERA treatments were performed using analysis of variance (ANOVA) with Fisher’s PLSD post hoc analysis (Statview 5.0, SAS Institute, Cary NC); statistical significance was considered to be P<0.05.” left out

| hepatocyte accumulation relative to the extracellular test concentration [2] [x] | hepatocyte accumulation relative to the extracellular test concentration ([2]; listed as Macitentan) [x] | SMILES | d8-TCA cellular accumulation (% control) ([1]; 33 µM ERA) [%] | d8-TCA total accumulation (% control) ([1]; 33 µM ERA) [%] | d8-TCA biliary efflux (BEI), percent of control ([1]; 33 µM ERA) [%] | d8-TCA in vitro biliary clearance (Clb), percent of control ([1]; 33 µM ERA) [%] | d8-TCA cellular accumulation (% control) ([1]; 100 µM ERA) [%] | d8-TCA total accumulation (% control) ([1]; 100 µM ERA) [%] | d8-TCA in vitro biliary clearance (Clb), percent of control ([1]; 100 µM ERA) [%] | d8-TCA cellular accumulation (% control) ([1]; 11 µM ERA) [%] | d8-TCA total accumulation (% control) ([1]; 11 µM ERA) [%] | d8-TCA in vitro biliary clearance (Clb), percent of control ([1]; 11 µM ERA) [%] | d8-TCA biliary efflux (BEI), percent of control ([1]; 100 µM ERA) [%] |
| --- | --- | --- | --- | --- | --- | --- | --- | --- | --- | --- | --- | --- | --- |
| > 100 | ~100 | CCCNS(=O)(=O)Nc1ncnc(OCCOc2ncc(Br)cn2)c1-c1ccc(Br)cc1 [macitentan] | 42.1±4.5 | 23.6±0.5 | 72.9±8.0 | 17.2±2.3 | 6.2±0.5 | 4.8±0.2 | 4.3±0.5 | – | – | – | – |
| ~40 | – | Cc1cc2c(cc1CC(=O)c1sccc1S(=O)(=O)Nc1onc(C)c1Cl)OCO2 [sitaxsentan] | – | – | – | – | – | – | – | – | – | – | – |
| – | – | COC(c1ccccc1)(c1ccccc1)[C@H](Oc1nc(C)cc(C)n1)C(=O)O [ambrisentan] | 71 | – | – | – | 52 | – | – | – | – | – | – |
| ~20 | – | COc1ccccc1Oc1c(NS(=O)(=O)c2ccc(C(C)(C)C)cc2)nc(-c2ncccn2)nc1OCCO [bosentan] | – | 62.6±6.6 | – | 58.7±11.4 | 44.5±3.6 | 31.7±5.9 | 27.0±9.3 | 66.5±5.3 | 68.6±1.5 | 69.2±0.1 | 85.2±13.9 |
